Reference: patent US11497212B2, “Substituted thiophenyl uracils, salts thereof and the use thereof as herbicidal agents” (Syngenta Crop Protection AG, priority 2017, dated 2022)

How the values were obtained:
Assay type in all cases: in vivo
Abutilon theophrasti [1] = test: Herbicidal action post-emergence (greenhouse pot trial); conditions: scored visually after about 3 weeks vs untreated controls
Summary of the method: (§1)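 One-leaf-stage seedlings, 2–3 weeks old, are treated on their green parts with an aqueous emulsion or suspension of the test compound (WP or EC, 0.5% additive) using 600 L/ha of water at up to 80 g/ha. About 3 weeks on, percent kill is estimated visually versus untreated plants.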

Alopecurus myosuroides [2] = test: as above; conditions: scored visually after about 3 weeks vs untreated controls
Summary of the method: as §1

Amaranthus retroflexus [3] = test: as above; conditions: scored visually after about 3 weeks vs untreated controls
Summary of the method: as §1

Avena fatua [4] = test: as above; conditions: scored visually after about 3 weeks vs untreated controls
Summary of the method: as §1

Echinochloa crus-galli [5] = test: as above; conditions: scored visually after about 3 weeks vs untreated controls
Summary of the method: as §1

Hordeum murinum [6] = test: as above; conditions: scored visually after about 3 weeks vs untreated controls
Summary of the method: as §1

Lolium rigidum [7] = test: as above; conditions: scored visually after about 3 weeks vs untreated controls
Summary of the method: as §1

Matricaria inodora [8] = test: as above; conditions: scored visually after about 3 weeks vs untreated controls
Summary of the method: as §1

Pharbitis purpurea [9] = test: as above
Summary of the method: as §1

Polygonum convolvulus = test: as above; conditions: scored visually after about 3 weeks vs untreated controls
Summary of the method: as §1

Setaria viridis [10] = test: as above; conditions: scored visually after about 3 weeks vs untreated controls
Summary of the method: as §1

Stellaria media [11] = test: as above; conditions: scored visually after about 3 weeks vs untreated controls
Summary of the method: as §1

Veronica persica [12] = test: as above
Summary of the method: as §1

Viola tricolor [13] = test: as above
Summary of the method: as §1

Glycine max [14] = test: Crop compatibility post-emergence (greenhouse pot trial); conditions: application rate 25 g/ha
Summary of the method: (§2)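 Compatibility is expressed as visually scored percent injury, where 0% means no difference from untreated controls and 100% means dead plants, assessed about 3 weeks after a foliar spray at 600 L/ha with 0.5% additive on one-leaf-stage pot plants in sandy loam.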

Oryza sativa = test: as above; conditions: application rate 5 g/ha
Summary of the method: as §2

Triticum aestivum = test: as above
Summary of the method: as §2

Zea mays [15] = test: as above
Summary of the method: as §2

Abutilon theophrasti [16] = test: Herbicidal action pre-emergence (greenhouse pot trial); conditions: application rate 320 g/ha, scored after about 3 weeks
Summary of the method: (§3)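 Efficacy (%) was estimated visually about 3 wk post-application by comparing treated pots with untreated controls, where 0% denotes plants resembling controls and 100% denotes dead plants. Dose was 320 g/ha or less.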

Alopecurus myosuroides [17] = test: as above; conditions: application rate 320 g/ha, scored after about 3 weeks
Summary of the method: as §3

Amaranthus retroflexus [18] = test: as above; conditions: application rate 320 g/ha, scored after about 3 weeks
Summary of the method: as §3

Avena fatua [19] = test: as above; conditions: application rate 320 g/ha
Summary of the method: as §3

Echinochloa crus-galli [20] = test: as above; conditions: application rate 320 g/ha, scored after about 3 weeks
Summary of the method: as §3

Hordeum murinum [21] = test: as above; conditions: application rate 320 g/ha
Summary of the method: as §3

Lolium rigidum [22] = test: as above; conditions: application rate 320 g/ha
Summary of the method: as §3

Matricaria inodora [23] = test: as above; conditions: application rate 320 g/ha, scored after about 3 weeks
Summary of the method: as §3

Pharbitis purpurea [24] = test: as above; conditions: application rate 320 g/ha
Summary of the method: as §3

Setaria viridis [25] = test: as above; conditions: application rate 320 g/ha, scored after about 3 weeks
Summary of the method: as §3

Stellaria media [26] = test: as above; conditions: application rate 320 g/ha, scored after about 3 weeks
Summary of the method: as §3

Veronica persica [27] = test: as above; conditions: application rate 320 g/ha
Summary of the method: as §3

Viola tricolor [28] = test: as above; conditions: application rate 320 g/ha, scored after about 3 weeks
Summary of the method: as §3

Zea mays [29] = test: Crop compatibility pre-emergence (greenhouse pot trial); conditions: application rate 80 g/ha, effect vs untreated controls
Summary of the method: (§4)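 Visual percentage scoring against untreated controls, about 3 weeks after treatment, gave the crop injury values (100% = plants died, 0% = like controls). Compounds, as wettable powders or emulsion concentrates, were sprayed onto covering soil over sown seeds at 600 L/ha water with 0.5% additive.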

Digitaria sanguinalis [30] = test: Herbicidal action post-emergence (greenhouse pot trial)
Summary of the method: as §1

Digitaria sanguinalis [31] = test: Herbicidal action pre-emergence (greenhouse pot trial); conditions: application rate 80 g/ha
Summary of the method: as §3

Glycine max [32] = test: Crop compatibility pre-emergence (greenhouse pot trial); conditions: application rate 20 g/ha, effect vs untreated controls
Summary of the method: as §4

CON(C(=O)C(C)Sc1cc(-n2c(=O)cc(C(F)(F)F)n(C)c2=O)c(F)cc1Cl)C1CCOC1 (stereo not drawn) [I.1-341]
90%: Alopecurus myosuroides (Efficacy in %) (Alopecurus myosuroides [2]; application rate 80 g/ha) | Avena fatua (Efficacy in %) (Avena fatua [4]; application rate 80 g/ha) | Hordeum murinum (Efficacy in %) (Hordeum murinum [6]; application rate 80 g/ha) | Alopecurus myosuroides (Efficacy in %) (Alopecurus myosuroides [17]) | Avena fatua (Efficacy in %) (Avena fatua [19])
10%: Glycine max (Efficacy in %) (Glycine max [14]) | Oryza sativa (Efficacy in %) (Oryza sativa) | Triticum aestivum (Efficacy in %) (Triticum aestivum; application rate 20 g/ha) | Zea mays (Efficacy in %) (Zea mays [15]; application rate 20 g/ha)
100%: Abutilon theophrasti (Efficacy in %) (Abutilon theophrasti [1]; application rate 80 g/ha) | Amaranthus retroflexus (Efficacy in %) (Amaranthus retroflexus [3]; application rate 80 g/ha) | Echinochloa crus-galli (Efficacy in %) (Echinochloa crus-galli [5]; application rate 80 g/ha) | Lolium rigidum (Efficacy in %) (Lolium rigidum [7]; application rate 80 g/ha) | Matricaria inodora (Efficacy in %) (Matricaria inodora [8]; application rate 80 g/ha) | Pharbitis purpurea (Efficacy in %) (Pharbitis purpurea [9]; application rate 80 g/ha) | Polygonum convolvulus (Efficacy in %) (Polygonum convolvulus; application rate 80 g/ha) | Setaria viridis (Efficacy in %) (Setaria viridis [10]; application rate 80 g/ha) | Stellaria media (Efficacy in %) (Stellaria media [11]; application rate 80 g/ha) | Veronica persica (Efficacy in %) (Veronica persica [12]; application rate 80 g/ha) | Viola tricolor (Efficacy in %) (Viola tricolor [13]; application rate 80 g/ha) | Abutilon theophrasti (Efficacy in %) (Abutilon theophrasti [16]) | Amaranthus retroflexus (Efficacy in %) (Amaranthus retroflexus [18]) | Echinochloa crus-galli (Efficacy in %) (Echinochloa crus-galli [20]) | Lolium rigidum (Efficacy in %) (Lolium rigidum [22]) | Matricaria inodora (Efficacy in %) (Matricaria inodora [23]) | Pharbitis purpurea (Efficacy in %) (Pharbitis purpurea [24]) | Setaria viridis (Efficacy in %) (Setaria viridis [25]) | Stellaria media (Efficacy in %) (Stellaria media [26]) | Veronica persica (Efficacy in %) (Veronica persica [27]) | Viola tricolor (Efficacy in %) (Viola tricolor [28])
0%: Zea mays (Efficacy in %) (Zea mays [29])
80%: Hordeum murinum (Efficacy in %) (Hordeum murinum [21])

CC(Sc1cc(-n2c(=O)cc(C(F)(F)F)n(C)c2=O)c(F)cc1Cl)C(=O)OC1CCOC1 (stereo not drawn) [I.1-121]
80%: Avena fatua (Efficacy in %) (Avena fatua [4]; application rate 20 g/ha) | Hordeum murinum (Efficacy in %) (Hordeum murinum [6]; application rate 20 g/ha) | Lolium rigidum (Efficacy in %) (Lolium rigidum [7]; application rate 20 g/ha)
100%: Abutilon theophrasti (Efficacy in %) (Abutilon theophrasti [1]; application rate 20 g/ha) | Amaranthus retroflexus (Efficacy in %) (Amaranthus retroflexus [3]; application rate 20 g/ha) | Digitaria sanguinalis (Efficacy in %) (Digitaria sanguinalis [30]; application rate 20 g/ha) | Echinochloa crus-galli (Efficacy in %) (Echinochloa crus-galli [5]; application rate 20 g/ha) | Matricaria inodora (Efficacy in %) (Matricaria inodora [8]; application rate 20 g/ha) | Pharbitis purpurea (Efficacy in %) (Pharbitis purpurea [9]; application rate 20 g/ha) | Polygonum convolvulus (Efficacy in %) (Polygonum convolvulus; application rate 20 g/ha) | Setaria viridis (Efficacy in %) (Setaria viridis [10]; application rate 20 g/ha) | Stellaria media (Efficacy in %) (Stellaria media [11]; application rate 20 g/ha) | Veronica persica (Efficacy in %) (Veronica persica [12]; application rate 20 g/ha)

CC(Sc1cc(-n2c(=O)cc(C(F)(F)F)n(C)c2=O)c(F)cc1Cl)C(=O)OC1COC1 (stereo not drawn) [I.1-115]
0%: Oryza sativa (Efficacy in %) (Oryza sativa)
20%: Zea mays (Efficacy in %) (Zea mays [15]; application rate 5 g/ha)
80%: Alopecurus myosuroides (Efficacy in %) (Alopecurus myosuroides [2]; application rate 20 g/ha) | Avena fatua (Efficacy in %) (Avena fatua [4]; application rate 20 g/ha)
100%: Abutilon theophrasti (Efficacy in %) (Abutilon theophrasti [1]; application rate 20 g/ha) | Amaranthus retroflexus (Efficacy in %) (Amaranthus retroflexus [3]; application rate 20 g/ha) | Digitaria sanguinalis (Efficacy in %) (Digitaria sanguinalis [30]; application rate 20 g/ha) | Hordeum murinum (Efficacy in %) (Hordeum murinum [6]; application rate 20 g/ha) | Matricaria inodora (Efficacy in %) (Matricaria inodora [8]; application rate 20 g/ha) | Pharbitis purpurea (Efficacy in %) (Pharbitis purpurea [9]; application rate 20 g/ha) | Polygonum convolvulus (Efficacy in %) (Polygonum convolvulus; application rate 20 g/ha) | Setaria viridis (Efficacy in %) (Setaria viridis [10]; application rate 20 g/ha) | Stellaria media (Efficacy in %) (Stellaria media [11]; application rate 20 g/ha) | Veronica persica (Efficacy in %) (Veronica persica [12]; application rate 20 g/ha) | Viola tricolor (Efficacy in %) (Viola tricolor [13]; application rate 20 g/ha)

CCC(Sc1cc(-n2c(=O)cc(C(F)(F)F)n(C)c2=O)c(F)cc1Cl)C(=O)OCC1CCOC1 (stereo not drawn) [I.2-72, Tetrahydrofuran-3-ylmethyl 2-({2-chloro-4-fluoro-5-[3-methyl-2,6-dioxo-4-(trifluoromethyl)-3,6-dihydropyrimidin-1(2H)-yl]phenyl}sulfanyl)butanoate]
10%: Zea mays (Efficacy in %) (Zea mays [29])
20%: Oryza sativa (Efficacy in %) (Oryza sativa) | Triticum aestivum (Efficacy in %) (Triticum aestivum; application rate 80 g/ha) | Glycine max (Efficacy in %) (Glycine max [32])
100%: Abutilon theophrasti (Efficacy in %) (Abutilon theophrasti [1]; application rate 80 g/ha) | Amaranthus retroflexus (Efficacy in %) (Amaranthus retroflexus [3]; application rate 80 g/ha) | Digitaria sanguinalis (Efficacy in %) (Digitaria sanguinalis [30]; application rate 80 g/ha) | Echinochloa crus-galli (Efficacy in %) (Echinochloa crus-galli [5]; application rate 80 g/ha) | Matricaria inodora (Efficacy in %) (Matricaria inodora [8]; application rate 80 g/ha) | Pharbitis purpurea (Efficacy in %) (Pharbitis purpurea [9]; application rate 80 g/ha) | Polygonum convolvulus (Efficacy in %) (Polygonum convolvulus; application rate 80 g/ha) | Setaria viridis (Efficacy in %) (Setaria viridis [10]; application rate 80 g/ha) | Stellaria media (Efficacy in %) (Stellaria media [11]; application rate 80 g/ha) | Veronica persica (Efficacy in %) (Veronica persica [12]; application rate 80 g/ha) | Viola tricolor (Efficacy in %) (Viola tricolor [13]; application rate 80 g/ha) | Abutilon theophrasti (Efficacy in %) (Abutilon theophrasti [16]) | Alopecurus myosuroides (Efficacy in %) (Alopecurus myosuroides [17]) | Amaranthus retroflexus (Efficacy in %) (Amaranthus retroflexus [18]) | Digitaria sanguinalis (Efficacy in %) (Digitaria sanguinalis [31]) | Echinochloa crus-galli (Efficacy in %) (Echinochloa crus-galli [20]) | Matricaria inodora (Efficacy in %) (Matricaria inodora [23]) | Pharbitis purpurea (Efficacy in %) (Pharbitis purpurea [24]) | Setaria viridis (Efficacy in %) (Setaria viridis [25]) | Stellaria media (Efficacy in %) (Stellaria media [26]) | Veronica persica (Efficacy in %) (Veronica persica [27]) | Viola tricolor (Efficacy in %) (Viola tricolor [28])
80%: Avena fatua (Efficacy in %) (Avena fatua [4]; application rate 80 g/ha) | Hordeum murinum (Efficacy in %) (Hordeum murinum [6]; application rate 80 g/ha) | Lolium rigidum (Efficacy in %) (Lolium rigidum [7]; application rate 80 g/ha) | Avena fatua (Efficacy in %) (Avena fatua [19])
90%: Alopecurus myosuroides (Efficacy in %) (Alopecurus myosuroides [2]; application rate 80 g/ha) | Hordeum murinum (Efficacy in %) (Hordeum murinum [21]) | Lolium rigidum (Efficacy in %) (Lolium rigidum [22])
